Test results from US11541065B2, “Compositions and methods for treating brain injury” (UNM RAINFOREST INNOVATIONS, priority 2018, dated 2023).

How the values were obtained:
Format in all cases: cell-based
[1] = system: ERK MAPK; assay: ERK MAPK phosphorylation in rat cortical neuron cultures (immunoblot)
Text: Primary cortical neuronal cultures were established from embryos obtained from pregnant Sprague Dawley female rats (16-17 day gestation) as previously described (Podder and Paul, 2009, J Neurochem 110:1095-1106; Poddar and Paul, 2013, J Neurochem 124: 558-570). Primary cortical neuronal cultures were also developed from pregnant wildtype or GluN2A-knockout mice (15-16 day gestation) using similar protocols. The cells were maintained in culture for 12-14 days prior to treatment with homocysteine. L-homocysteine (200 mM stock) was prepared by alkali hydrolysis of L-homocysteine thiolactone hydrochloride followed by neutralization with 2N HCL and maintained in 0.02 mM N-Tris(hydroxymethyl)methyl-2-aminoethanesulfonicd acid (TES) buffer pH 7.4 (Poddar et al., 2001, Circulation 103:2717-2723). For receptor stimulation neurons were treated with freshly prepared 50 μM of L-homocysteine in Hank's balanced salt solution (Podder and Paul, 2009, J Neurochem 110:1095-1106; Poddar and Paul, 2013, J Neurochem 124: 558-570) containing 50 μM of glycine (Lipton et al., 1997, Proc Natl Acad Sci USA 94:5923-5928). In a subset of culture plates, pharmacological inhibitors (NVP-AAM007) were added […] prior to homocysteine addition and maintained during homocysteine treatment. Cells were processed for immunoblotting or Hoechst DNA staining.
Equal protein from total cell lysates obtained from rat and mice neuronal cultures were resolved in 7.5% SDS-PAGE, and subjected to immunoblotting procedure as described earlier (Podder and Paul, 2009, J Neurochem 110:1095-1106). Blots were analyzed with antibodies as described in each experiment. All primary antibodies (anti-pERK, anti-ERK) and secondary-horse radish peroxidase conjugated antibody concentrations were used according to recommendations provided by the manufacturer. Signals from immune complexes in the blots were developed using West Pico supersignal chemiluminescence reagents and then captured on X-ray films. Densitometric analysis of the images was performed using the Image J software.
Embryos obtained from pregnant Sprague Dawley rats (16-17-day gestation) or wild type (WT) and GluN2A KO mice (15-16-day gestation) were used to establish primary cortical neuronal cultures as previously described (Poddar and Paul, 2009, J Neurochem 110:1095-1106; Poddar and Paul, 2013, J Neurochem 124:558-570; Poddar et al., 2017, J Neurochem 142:560-573). Neurons were grown on either (a) 35-mm culture dishes (MatTek Corp., Ashland, Mass.) coated overnight with poly-D-lysine (50 μg/ml) and laminin (10 μg/ml) for Ca^2+ imaging studies, (b) poly-D-lysine-coated 60 mm dishes (Corning BIOCOAT, Corning Inc., Corning, N.Y.) for biochemical studies, or (c) poly-D-lysine-coated 4-well culture slides (Corning BIOCOAT, Corning Inc., Corning, N.Y.) for cell death assay. Neurons were maintained in culture for 12-13 days before experiment. The cells were treated with freshly prepared L-homocysteine (50 μM) in Hank's balanced salt solution containing 50 μM of glycine (Lipton et al., 1997, Proceedings of the National Academy of Sciences of the United States of America 94:5923-5928; Poddar and Paul, 2009, J Neurochem 110:1095-1106; Poddar and Paul, 2013, J Neurochem 124:558-570; Poddar et al., 2017, J Neurochem 142:560-573) for the specified time periods. In a parallel series of experiments, cells were treated with glutamate (50 μM) for the specified time periods. Cells were then processed for live cell imaging, immunoblotting or cell death assay. In some experiments EGTA, DL-AP5, NVP-AAM077, Ro 25-6981 or PD98059 was added 15 minutes prior to L-homocysteine or glutamate treatment.
Rat and mice neuron cultures were harvested in SDS sample buffer (Laemmli, 1970, Nature 227:680-685). […]

[2] = system: cPLA2; assay: cPLA2 activity in rat neuronal lysates (enzymatic assay); conditions: for effect on homocysteine-mediated increase in cPLA2 activity: rat neurons, L-homocysteine 50 μM four hours, with MK801 10 μM, NVP-AAM077 30 nM, Ro 25-6981 1 μM, PD98059 15 μM or SB203580 5 μM
Description: (§1) Neuron cultures were treated with or without L-homocysteine in the presence or absence of pharmacological inhibitors for the time period specified in each experiment. The medium was collected from each experimental plate and centrifuged at 1000 rpm for five minutes to remove cellular debris. Equal amounts (100 μl) of the supernatant from each sample were used to determine the amount of PGE2 using the PGE2 enzyme immunoassay kit according to the manufacturer's instructions. For measurement of cPLA2 activity, the neuronal cells from the above treated conditions were harvested in ice-cold Tris-buffered saline (pH7.4) containing sodium pyrophosphate as phosphatase inhibitor, sonicated three times with five-second bursts and two minutes on ice between intervals. The lysed cell suspensions were centrifuged at 10,000 rpm for 10 minutes and the supernatant removed. Equal amounts of protein from the supernatant (assessed using BCA protein estimation kit) were estimated for activity of cPLA2 using cPLA2 activity assay kit according to the manufacturer's protocol.
For measurement of cPLA2 activity and MCP-1 levels in cell lysates, neuronal lysates were prepared by harvesting neurons in ice-cold Tris-buffered saline (pH 7.4) containing phosphatase inhibitor, sonicated three times in five-second bursts and placed on ice (two minutes) between each burst of sonication. The lysed cell suspensions were centrifuged at 10,000 rpm (10 minutes) and the supernatant was collected in another tube. Equal amounts of protein from the supernatant were processed for cPLA2 activity assay according to the manufacturer's protocol. Equal protein from the lysates were also used to estimate MCP-1 levels using an MCP-1 ELISA kit.

[3] = system: PGE2; assay: PGE2 release from rat neuronal cultures (enzyme immunoassay / ELISA of culture media); conditions: for effect on homocysteine-induced PGE2 release: rat neurons, L-homocysteine 50 μM four hours, with DL-AP5 200 μM, MK801 10 μM, NVP-AAM077 30 nM, Ro 25-6981 1 μM, PD98059 15 μM, SB203580 5 μM, Bengamide B 500 nM or CAY10404 100 nM
Description: as §1
For measurement of PGE2 levels and MCP-1 levels released from neurons, culture medium was collected from each experimental plate and centrifuged at 1000 rpm for five minutes to remove cellular debris. Equal volume (100 μl) of the supernatant from each sample was used to determine PGE2 level using the PGE2 ELISA kit according to the manufacturer's instructions.

[4] = rat cortical neurons, L-homocysteine 50 μM four hours, in presence of NVP-AAM077 (30 nM) or Ro 256981 (1 μM)

Row | SMILES | effect on homocysteine-induced ERK MAPK phosphorylation [1, 4] | effect on homocysteine-induced ERK MAPK phosphorylation ([1]; rat neurons, L-homocysteine 50 μM for 30 minutes or 60 minutes, with DL-AP5 200 μM or NVP-AAM077 30 nM) | effect on glutamate-induced transient increase in ERK MAPK phosphorylation ([1]; rat neurons, glutamate 50 μM five min, with DL-AP5 200 μM or NVP-AAM077 30 nM) | effect on homocysteine-mediated increase in cPLA2 activity [2] | effect on homocysteine-induced PGE2 release [3] | ERK MAPK phosphorylation ([1]; rat cortical neurons, L-homocysteine 50 μM, four hours, alone) | cPLA2 activity ([2]; primary cortical neurons, L-homocysteine 50 μM, 0-6 hours, alone) | PGE2 levels released into the medium ([3]; cortical neurons, L-homocysteine 50 μM, time course, alone)
1 | C[C@H](NC(c1cccc2[nH]c(=O)c(=O)[nH]c12)P(=O)(O)O)c1ccc(Br)cc1 (stereo partly drawn) [NVP-AAM077, ({[(1S)-1-(4-bromophenyl)ethyl]amino}-(2,3-dioxo-1,4-dihydroquinoxalin-5-yl)methyl)phosphonic acid] | blocks homocysteine-induced ERK MAPK phosphorylation | attenuates homocysteine-induced ERK MAPK phosphorylation | fails to ameliorate | inhibits homocysteine-mediated increase in cPLA2 activity | significantly reduced |  |  | 
2 | C[C@@H](CN1CCC(Cc2ccccc2)CC1)[C@@H](O)c1ccc(O)cc1 [Ro 25-6981] | has no effect |  |  | fails to attenuate homocysteine-mediated increase in cPLA2 activity | fails to alter homocysteine-induced increase in PGE2 level |  |  | 
3 | N[C@@H](CCS)C(=O)O [L-homocysteine] |  |  |  |  |  | significant increase in ERK MAPK phosphorylation | significantly increases cPLA2 activity with time | significant increase in PGE2 levels within two hours
